Our source for the Ki, EC50 and Emax values is article PMC7736868, “Fluorescent ligands for dopamine D2/D3 receptors” (Scientific Reports, 2020).

Chain of human D2LR (P14416 whole entry): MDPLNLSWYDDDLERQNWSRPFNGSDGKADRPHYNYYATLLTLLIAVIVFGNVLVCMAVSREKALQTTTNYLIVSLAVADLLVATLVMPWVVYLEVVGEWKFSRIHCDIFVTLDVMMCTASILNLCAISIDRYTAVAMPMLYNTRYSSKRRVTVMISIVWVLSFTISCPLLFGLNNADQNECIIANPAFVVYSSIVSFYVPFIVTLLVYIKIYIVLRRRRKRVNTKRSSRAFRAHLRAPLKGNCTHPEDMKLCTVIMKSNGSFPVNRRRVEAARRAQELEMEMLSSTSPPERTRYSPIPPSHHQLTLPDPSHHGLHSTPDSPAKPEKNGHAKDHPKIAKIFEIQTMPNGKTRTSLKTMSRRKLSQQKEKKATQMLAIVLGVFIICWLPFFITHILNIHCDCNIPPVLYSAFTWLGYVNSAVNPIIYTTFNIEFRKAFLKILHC
Chain of human D3R (P35462 whole entry): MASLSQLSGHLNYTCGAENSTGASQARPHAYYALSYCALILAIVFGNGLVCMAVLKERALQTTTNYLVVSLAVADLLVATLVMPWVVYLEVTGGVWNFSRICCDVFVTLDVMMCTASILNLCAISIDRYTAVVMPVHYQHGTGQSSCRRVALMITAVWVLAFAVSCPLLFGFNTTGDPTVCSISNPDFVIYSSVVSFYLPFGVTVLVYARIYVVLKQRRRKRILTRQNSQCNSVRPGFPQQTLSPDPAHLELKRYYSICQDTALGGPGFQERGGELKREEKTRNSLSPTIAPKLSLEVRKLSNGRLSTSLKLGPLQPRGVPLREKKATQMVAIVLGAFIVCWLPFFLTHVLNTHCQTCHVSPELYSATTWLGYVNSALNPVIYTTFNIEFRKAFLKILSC
T5 sequence (P50129 whole entry): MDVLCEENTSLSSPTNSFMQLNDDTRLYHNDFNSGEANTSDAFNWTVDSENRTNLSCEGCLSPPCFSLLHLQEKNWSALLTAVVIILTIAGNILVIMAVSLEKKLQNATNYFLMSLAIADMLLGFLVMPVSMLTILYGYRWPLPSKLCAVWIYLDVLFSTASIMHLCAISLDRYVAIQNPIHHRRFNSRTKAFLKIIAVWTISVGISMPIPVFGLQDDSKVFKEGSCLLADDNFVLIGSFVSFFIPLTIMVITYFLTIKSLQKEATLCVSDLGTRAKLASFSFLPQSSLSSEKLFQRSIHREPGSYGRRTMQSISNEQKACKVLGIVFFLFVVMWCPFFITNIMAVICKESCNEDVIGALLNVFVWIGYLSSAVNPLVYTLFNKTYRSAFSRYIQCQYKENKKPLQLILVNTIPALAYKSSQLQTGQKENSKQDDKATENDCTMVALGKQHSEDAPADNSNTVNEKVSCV

One assay deals with T1, porcine D1R (Sus scrofa, UniProt P50130).
T1 construct: homogenates obtained from porcine striatum; from tissue; host or cells: porcine striatum homogenate
T1 sequence (P50130 whole entry): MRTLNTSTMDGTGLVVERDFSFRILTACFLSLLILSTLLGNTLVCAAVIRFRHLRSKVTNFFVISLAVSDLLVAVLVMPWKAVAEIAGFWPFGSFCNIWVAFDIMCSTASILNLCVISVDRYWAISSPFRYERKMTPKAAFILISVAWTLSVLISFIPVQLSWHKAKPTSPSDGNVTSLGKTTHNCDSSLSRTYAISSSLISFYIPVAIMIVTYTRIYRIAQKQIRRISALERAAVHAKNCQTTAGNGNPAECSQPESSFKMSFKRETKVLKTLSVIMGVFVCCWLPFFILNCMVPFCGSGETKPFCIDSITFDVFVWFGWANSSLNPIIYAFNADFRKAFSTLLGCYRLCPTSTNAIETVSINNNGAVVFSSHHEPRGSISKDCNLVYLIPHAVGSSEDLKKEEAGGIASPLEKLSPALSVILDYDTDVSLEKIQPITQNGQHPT
The assay can be described thus: Radioligand competition, [3H]SCH23390, porcine striatum homogenates. The class given is binding. To be noted: [3H]SCH23,390; mean of n experiments; read-out: Ki pD1R.
Take `CN(C)c1cccc2c(S(=O)(=O)NCCCNC(=O)c3ccc(-n4cc(CCCCN5CCN(c6cccc(Cl)c6Cl)CC5)nn4)cc3)cccc12` [8b]: the inhibitory constant (Ki) worked out at 340 nM.
As to `CCCN(CCCCc1cn(-c2ccc(C(=O)NCCCNC(=O)Cc3ccc4c(c3)C(C)(C)C3=C5C=C6C7=[N+](CCC6OC5CCN34)c3ccc(S(=O)(=O)[O-])cc3C7(C)C)cc2)nn1)C1Cc2ccccc2C1` (stereo not drawn) [10b], the Ki is 5100 nM.

In a further assay the target is T2, D2SR (Homo sapiens, UniProt P14416). As to the kind of experiment: Radioligand competition, [3H]spiperone, CHO cell membranes.
T2 sequence (P14416 1-414 isoform P14416-2): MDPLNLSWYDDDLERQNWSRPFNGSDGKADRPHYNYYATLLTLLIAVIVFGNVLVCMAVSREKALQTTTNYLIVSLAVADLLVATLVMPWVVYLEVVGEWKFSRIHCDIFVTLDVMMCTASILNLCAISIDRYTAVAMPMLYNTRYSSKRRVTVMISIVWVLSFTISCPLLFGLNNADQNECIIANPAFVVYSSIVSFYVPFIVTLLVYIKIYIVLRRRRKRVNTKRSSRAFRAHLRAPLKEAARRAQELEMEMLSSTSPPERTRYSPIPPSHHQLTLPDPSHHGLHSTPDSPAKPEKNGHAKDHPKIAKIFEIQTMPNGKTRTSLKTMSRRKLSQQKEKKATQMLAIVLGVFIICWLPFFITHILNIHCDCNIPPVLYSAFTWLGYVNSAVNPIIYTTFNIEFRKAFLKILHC
Conditions: not given
The molecule `CN(C)c1cccc2c(S(=O)(=O)NCCCNC(=O)c3ccc(-n4cc(CCCCN5CCN(c6cccc(Cl)c6Cl)CC5)nn4)cc3)cccc12` [8b] displayed a Ki of 3.6 ± 1.6 nM.

The same assay, now with this note: read-out: Ki hD2SR; [3H]spiperone; mean ± SEM.
In the case of `CCCN(CCCCc1cn(-c2ccc(C(=O)NCCCNC(=O)Cc3ccc4c(c3)C(C)(C)C3=C5C=C6C7=[N+](CCC6OC5CCN34)c3ccc(S(=O)(=O)[O-])cc3C7(C)C)cc2)nn1)C1Cc2ccccc2C1` (stereo not drawn) [10b], the Ki is 4.8 ± 1 nM.

In another assay the target is T3, human D4R (Homo sapiens, UniProt P21917).
T3 sequence (P21917 1-419): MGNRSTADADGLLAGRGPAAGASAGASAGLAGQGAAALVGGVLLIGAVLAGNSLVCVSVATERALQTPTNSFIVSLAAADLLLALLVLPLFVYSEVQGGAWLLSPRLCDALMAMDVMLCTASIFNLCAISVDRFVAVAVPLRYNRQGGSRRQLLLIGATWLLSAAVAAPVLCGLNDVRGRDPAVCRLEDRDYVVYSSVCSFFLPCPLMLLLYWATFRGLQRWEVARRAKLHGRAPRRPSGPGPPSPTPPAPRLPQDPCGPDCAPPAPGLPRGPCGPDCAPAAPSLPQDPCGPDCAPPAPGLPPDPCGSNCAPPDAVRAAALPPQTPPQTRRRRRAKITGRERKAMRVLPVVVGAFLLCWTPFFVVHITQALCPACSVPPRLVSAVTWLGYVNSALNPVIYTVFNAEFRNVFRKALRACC
The assay is described as above.
Conditions: not given
As for `CN(C)c1cccc2c(S(=O)(=O)NCCCNC(=O)c3ccc(-n4cc(CCCCN5CCN(c6cccc(Cl)c6Cl)CC5)nn4)cc3)cccc12` [8b], affinity was put at a Ki of 130 ± 10 nM.

Still in this assay, the particulars now being: read-out: Ki hD4R; [3H]spiperone; mean ± SEM.
For `CCCN(CCCCc1cn(-c2ccc(C(=O)NCCCNC(=O)Cc3ccc4c(c3)C(C)(C)C3=C5C=C6C7=[N+](CCC6OC5CCN34)c3ccc(S(=O)(=O)[O-])cc3C7(C)C)cc2)nn1)C1Cc2ccccc2C1` (stereo not drawn) [10b], the Ki stood at 50 ± 7 nM.

Another assay has as its target human D2LR (Homo sapiens, UniProt P14416). The assay is described as above.
Conditions: not given
In the case of `CN(C)c1cccc2c(S(=O)(=O)NCCCNC(=O)c3ccc(-n4cc(CCCCN5CCN(c6cccc(Cl)c6Cl)CC5)nn4)cc3)cccc12` [8b], the inhibition constant (Ki) was found to be 13 ± 6 nM.

Still in this assay, the particulars now being: read-out: Ki hD2LR; [3H]spiperone; mean ± SEM.
`CCCN(CCCCc1cn(-c2ccc(C(=O)NCCCNC(=O)Cc3ccc4c(c3)C(C)(C)C3=C5C=C6C7=[N+](CCC6OC5CCN34)c3ccc(S(=O)(=O)[O-])cc3C7(C)C)cc2)nn1)C1Cc2ccccc2C1` (stereo not drawn) [10b]: the inhibition constant Ki came to 10 ± 2 nM.

For another assay, the target named is T4, porcine 5-HT1AR (Sus scrofa, UniProt A0A4X1UTF5).
T4 construct: homogenates of porcine cerebral cortex; from tissue; host or cells: porcine cerebral cortex homogenate
T4 sequence (A0A4X1UTF5 1-422): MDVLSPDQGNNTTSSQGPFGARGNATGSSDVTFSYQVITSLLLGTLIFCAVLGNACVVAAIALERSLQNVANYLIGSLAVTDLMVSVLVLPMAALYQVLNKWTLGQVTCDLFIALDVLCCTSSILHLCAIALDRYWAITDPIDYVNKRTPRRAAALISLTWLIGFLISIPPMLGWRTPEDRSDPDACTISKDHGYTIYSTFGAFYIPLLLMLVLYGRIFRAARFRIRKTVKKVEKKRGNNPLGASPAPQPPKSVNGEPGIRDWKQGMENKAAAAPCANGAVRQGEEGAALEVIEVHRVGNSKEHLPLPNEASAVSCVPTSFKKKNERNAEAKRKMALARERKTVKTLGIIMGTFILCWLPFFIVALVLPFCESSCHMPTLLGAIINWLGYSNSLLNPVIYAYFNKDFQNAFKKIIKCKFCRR
The assay can be described thus: Radioligand competition, [3H]WAY100,635, porcine cerebral cortex homogenates. The assay is classed as binding. To be noted: mean of n experiments, read-out: Ki p5-HT1AR.
Consider `CN(C)c1cccc2c(S(=O)(=O)NCCCNC(=O)c3ccc(-n4cc(CCCCN5CCN(c6cccc(Cl)c6Cl)CC5)nn4)cc3)cccc12` [8b], for which the inhibition constant Ki was determined as 170 nM.
The same measure, in the same setting: with `CCCN(CCCCc1cn(-c2ccc(C(=O)NCCCNC(=O)Cc3ccc4c(c3)C(C)(C)C3=C5C=C6C7=[N+](CCC6OC5CCN34)c3ccc(S(=O)(=O)[O-])cc3C7(C)C)cc2)nn1)C1Cc2ccccc2C1` (stereo not drawn) [10b] the figure was 120 nM.

A further assay addresses human D3R (Homo sapiens, UniProt P35462). The assay can be described thus: Radioligand competition, [3H]spiperone, CHO cell membranes.
Conditions: not given
Regarding `CN(C)c1cccc2c(S(=O)(=O)NCCCNC(=O)c3ccc(-n4cc(CCCCN5CCN(c6cccc(Cl)c6Cl)CC5)nn4)cc3)cccc12` [8b], the Ki stood at 1.9 ± 0.9 nM.

The same assay, now with this note: read-out: Ki hD3R; [3H]spiperone; mean ± SEM.
Turning to `CCCN(CCCCc1cn(-c2ccc(C(=O)NCCCNC(=O)Cc3ccc4c(c3)C(C)(C)C3=C5C=C6C7=[N+](CCC6OC5CCN34)c3ccc(S(=O)(=O)[O-])cc3C7(C)C)cc2)nn1)C1Cc2ccccc2C1` (stereo not drawn) [10b], the Ki was 0.9 ± 0.26 nM.

The next assay addresses T5, porcine 5-HT2R (Sus scrofa, UniProt P50129).
T5 construct: homogenates of porcine cerebral cortex; from tissue; host or cells: porcine cerebral cortex homogenate
As to the kind of experiment: Radioligand competition, [3H]ketanserin, porcine cerebral cortex homogenates. The assay is classed as binding. The conditions noted are these: mean of n experiments, read-out: Ki p5-HT2R.
For `CN(C)c1cccc2c(S(=O)(=O)NCCCNC(=O)c3ccc(-n4cc(CCCCN5CCN(c6cccc(Cl)c6Cl)CC5)nn4)cc3)cccc12` [8b], the inhibition constant (Ki) worked out at 380 nM.
The same measure, in the same setting: with `CCCN(CCCCc1cn(-c2ccc(C(=O)NCCCNC(=O)Cc3ccc4c(c3)C(C)(C)C3=C5C=C6C7=[N+](CCC6OC5CCN34)c3ccc(S(=O)(=O)[O-])cc3C7(C)C)cc2)nn1)C1Cc2ccccc2C1` (stereo not drawn) [10b] the figure was 330 nM.

The target in a further assay is T2, D2SR. As to the kind of experiment: β-arrestin-2 recruitment (Pathhunter, DiscoverX), HEK293 cells, GRK2 coexpressed. The class given is cell-based. Set-up: expressed in transfected cells. The conditions noted are these: read-out: EC50 β-arrestin-2 recruitment at D2SR, mean ± SEM.
On to `CCCN(CCCCc1cn(-c2ccc(C(=O)NCCCNC(=O)Cc3ccc4c(c3)C(C)(C)C3=C5C=C6C7=[N+](CCC6OC5CCN34)c3ccc(S(=O)(=O)[O-])cc3C7(C)C)cc2)nn1)C1Cc2ccccc2C1` (stereo not drawn) [10b], for which the 50% effective concentration (EC50) worked out at 410 ± 60 nM.

Still in this assay, the particulars now being: read-out: Emax β-arrestin-2 recruitment at D2SR, reference agonist quinpirole.
Take `CCCN(CCCCc1cn(-c2ccc(C(=O)NCCCNC(=O)Cc3ccc4c(c3)C(C)(C)C3=C5C=C6C7=[N+](CCC6OC5CCN34)c3ccc(S(=O)(=O)[O-])cc3C7(C)C)cc2)nn1)C1Cc2ccccc2C1` (stereo not drawn) [10b]: the Emax was determined as 79 ± 3%.

For another assay, the target named is porcine α1-AR. The assay can be described thus: Radioligand competition, [3H]prazosin, porcine cerebral cortex homogenates. The conditions noted are these: read-out: Ki pα1-AR, mean of n experiments.
For `CN(C)c1cccc2c(S(=O)(=O)NCCCNC(=O)c3ccc(-n4cc(CCCCN5CCN(c6cccc(Cl)c6Cl)CC5)nn4)cc3)cccc12` [8b], the inhibition constant Ki was determined as 23 nM.
On the same count and under the same terms, under `CCCN(CCCCc1cn(-c2ccc(C(=O)NCCCNC(=O)Cc3ccc4c(c3)C(C)(C)C3=C5C=C6C7=[N+](CCC6OC5CCN34)c3ccc(S(=O)(=O)[O-])cc3C7(C)C)cc2)nn1)C1Cc2ccccc2C1` (stereo not drawn) [10b] stands 87 nM.
